pKi: −log10 of the molar value. Where a name gives a salt, the structure may show the parent alone. Read-outs that look alike come from different tables or passages of the source.
What was measured:
[1] = target: T1, human dopamine D2L receptors (long isoform) (Homo sapiens, UniProt P14416); test: Dopamine D2L receptor binding ([125I] iodospiperone displacement); conditions: selectivity ratio of receptor binding constants, D2L versus D3, HEK-293 membranes
T1 construct: expressed in transfected cells; host or cells: HEK-293
T1 sequence (P14416 whole entry, canonical isoform): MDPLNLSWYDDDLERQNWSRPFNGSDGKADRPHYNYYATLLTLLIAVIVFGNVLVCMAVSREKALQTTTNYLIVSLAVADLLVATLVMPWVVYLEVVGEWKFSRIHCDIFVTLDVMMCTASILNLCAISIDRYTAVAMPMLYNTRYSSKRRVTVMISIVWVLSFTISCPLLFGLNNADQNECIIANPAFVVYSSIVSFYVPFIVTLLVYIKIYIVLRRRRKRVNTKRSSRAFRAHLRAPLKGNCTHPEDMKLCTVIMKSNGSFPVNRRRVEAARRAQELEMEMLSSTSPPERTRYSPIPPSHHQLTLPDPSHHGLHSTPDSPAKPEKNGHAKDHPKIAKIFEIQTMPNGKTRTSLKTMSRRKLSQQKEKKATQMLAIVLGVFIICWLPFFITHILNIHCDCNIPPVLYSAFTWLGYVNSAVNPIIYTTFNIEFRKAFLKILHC
Experimental: (§1) Each assay mixture was run in triplicate. • The incubation buffer contained 50 mM tris, 120 mM NaCl, 5 mM KCl, 2 mM CaCl2, 2 mM MgCl2 and 0.1% bovine serum albumin, 10 μM quinolone and 0.1% ascorbic acid (prepared fresh daily). […] Each assay mixture was run in triplicate. • The incubation buffer contained 50 mM tris, 120 mM NaCl, 5 mM KCl, 2 mM CaCl2, 2 mM MgCl2 and 0.1% bovine serum albumin. The buffer was adjusted to pH 7.4 with HCl. • Measurement and Analysis: • After having been incubated at 25° C. for 60 minutes, the assay mixtures were filtered through a Whatman GF/B glass fiber filter under vacuum using a cell collecting device. The filters were transferred to scintillation viols using a filter transfer system. After 4 ml of Ultima Gold® (Packard) have been added, the samples were shaken for one hour and the radioactivity was then counted in a Beta-Counter (Packard, Tricarb 2000 or 2200CA).

[2] = target: T2, human dopamine D3 receptors (Homo sapiens, UniProt P35462); test: Dopamine D3 receptor binding ([125I]-iodosulpride displacement)
T2 construct: expressed in transfected cells; host or cells: HEK-293
T2 sequence (P35462 whole entry): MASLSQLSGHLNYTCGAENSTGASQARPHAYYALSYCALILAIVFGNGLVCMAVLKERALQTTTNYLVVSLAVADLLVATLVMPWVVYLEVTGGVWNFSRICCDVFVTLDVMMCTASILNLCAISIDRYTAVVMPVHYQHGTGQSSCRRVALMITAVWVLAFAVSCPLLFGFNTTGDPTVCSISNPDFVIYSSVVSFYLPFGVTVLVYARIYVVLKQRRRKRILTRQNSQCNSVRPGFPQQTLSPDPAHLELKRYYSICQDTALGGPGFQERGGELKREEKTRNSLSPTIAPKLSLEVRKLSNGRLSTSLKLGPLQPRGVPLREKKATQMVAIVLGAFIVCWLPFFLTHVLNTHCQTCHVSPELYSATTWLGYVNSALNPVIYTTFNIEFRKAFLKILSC
Experimental: as §1

[3] = membranes of HEK-293 cells stably expressing human D3 receptor, 0.1 nM [125I]-iodosulpride, 25° C., 60 minutes, read-out: Ki(D3)*

SMILES	Ki(D2)*/Ki(D3)* [1]	pKi [2, 3]	pKi [2]
C=CCN(CC=C)CCc1ccc(NS(=O)(=O)c2ccc(C(C)C)cc2)cc1 [Example 19, N-[4-(2-Diallylamino-ethyl)-phenyl]-4-isopropyl-benzenesulfonamide×HCl]	42	8.57	–
CCCN(CCC)CCc1ccc(NS(=O)(=O)c2ccc(C(C)C)cc2)cc1 [Example 8, N-[4-(2-Dipropylamino-ethyl)-phenyl]-4-isopropyl-benzenesulfonamide×HCl]	54	9.70	–
C=CCNCCc1ccc(NS(=O)(=O)c2ccc(C(C)C)cc2)cc1.Cl [Example 13, N-[4-(2-Allylamino-ethyl)-phenyl]-4-isopropyl-benzenesulfonamide×HCl]	74	8.77	–
CCCNCCc1ccc(CS(=O)(=O)c2ccc(C(C)C)cc2)cc1.Cl [Example 28, {2-[4-(4-Isopropyl-benzenesulfonylmethyl)-phenyl]-ethyl}-propyl-amine×HCl]	130	8.32	–
CCCN[C@H](C)Cc1ccc(NS(=O)(=O)c2ccc(OC(F)(F)F)cc2)cc1 [Example 2, N-[4-((R)-2-Propylamino-propyl)-phenyl]-4-trifluoromethoxy-benzenesulfonamide]	57	–	7.68
CCCN(CCC)CCc1ccc(N(C)S(=O)(=O)c2ccc(C(C)C)cc2)cc1 [Example 9, N-[4-(2-Dipropylamino-ethyl)-phenyl]-4-isopropyl-N-methyl-benzenesulfonamide×HCl]	40	8.70	–
CC(C)c1ccc(S(=O)(=O)Nc2ccc(CCNCC3CC3)cc2)cc1 [Example 7, N-{4-[2-(Cyclopropylmethyl-amino)-ethyl]-phenyl}-4-isopropyl-benzenesulfonamide×HCl]	23	7.74	–
C=CCNCCc1cccc(NS(=O)(=O)c2ccc(C(C)C)cc2)c1 [Example 21, N-[3-(2-Allylamino-ethyl)-phenyl]-4-isopropyl-benzenesulfonamide, reference compound]	62	–	7.66
CCCN(CCC)CCc1ccc(CS(=O)(=O)c2ccc(OC(F)(F)F)cc2)cc1 [Example 26, Dipropyl-{2-[4-(4-trifluoromethoxy-benzenesulfonylmethyl)-phenyl]-ethyl}-dipropyl-amine×HCl]	170	–	8.41
CCCNC(C)Cc1ccc(NS(=O)(=O)c2ccc(C(C)C)cc2)cc1.Cl (centres unmarked) [Example 3, 4-Isopropyl-N-[4-(2-propylamino-propyl)-phenyl]-benzenesulfonamide×HCl]	33	8.55	–
CCCNCCc1ccc(NS(=O)(=O)c2ccc(C(C)C)cc2)cc1.Cl [Example 6, 4-Isopropyl-N-[4-(2-propylamino-ethyl)-phenyl]-benzenesulfonamide×HCl]	22	8.66	–
C=CCNCCc1ccc(N(CCC)S(=O)(=O)c2ccc(C(C)C)cc2)cc1.Cl [Example 15, N-[4-(2-Allylamino-ethyl)-phenyl]-4-isopropyl-N-propyl-benzenesulfonamide×HCl]	22	7.66	–
CCCN1CCCC1Cc1ccc(NS(=O)(=O)c2ccc(C(C)C)cc2)cc1 (centres unmarked) [Example 11, 4-Isopropyl-N-[4-(1-propyl-pyrrolidin-2-ylmethyl)-phenyl]-benzenesulfonamide]	16	9.24	–
CCCN(CCC)CCc1ccc(CS(=O)(=O)c2ccc(C(C)C)cc2)cc1 [Example 25, Dipropyl-{2-[4-(4-isopropyl-benzenesulfonylmethyl)-phenyl]-ethyl}-amine×HCl]	175	9.30	–
C=CCNCCc1ccc(N(CCC)S(=O)(=O)c2ccc(OC(F)(F)F)cc2)cc1.Cl [Example 18, N-[4-(2-Allylamino-ethyl)-phenyl]-N-propyl-4-trifluoromethoxy-benzenesulfonamide×HCl]	24	7.43	–
C=CCN(CC=C)CCc1ccc(NS(=O)(=O)c2ccc(OC(F)(F)F)cc2)cc1 [Example 20, N-[4-(2-Diallylamino-ethyl)-phenyl]-4-trifluoromethoxy-benzenesulfonamide×HCl]	65	7.19	–
C=CCNCCc1ccc(N(C)S(=O)(=O)c2ccc(C(C)C)cc2)cc1.Cl [Example 14, N-[4-(2-Allylamino-ethyl)-phenyl]-4-isopropyl-N-methyl-benzenesulfonamide×HCl]	40	7.57	–
CCCNCCc1ccc(NS(=O)(=O)c2ccc(C(C)C)cc2)cn1 [Example 10, 4-Isopropyl-N-[6-(2-propylamino-ethyl)-pyridin-3-yl]-benzenesulfonamide×2HCl]	53	7.38	–
C=CCNCCc1ccc(N(C)S(=O)(=O)c2ccc(OC(F)(F)F)cc2)cc1 [Example 17, N-[4-(2-Allylamino-ethyl)-phenyl]-N-methyl-4-trifluoromethoxy-benzenesulfonamide×HCl]	75	7.47	–
CCCN[C@@H](C)Cc1ccc(NS(=O)(=O)c2ccc(OC(F)(F)F)cc2)cc1 [Example 1, N-[4-((S)-2-Propylamino-propyl)-phenyl]-4-trifluoromethoxy-benzenesulfonamide]	41	–	7.37
C=CCNCCc1ccc(NS(=O)(=O)c2ccc(OC(F)(F)F)cc2)cc1.Cl [Example 16, N-[4-(2-Allylamino-ethyl)-phenyl]-4-trifluoromethoxy-benzenesulfonamide×HCl]	79	7.51	–
C=CCN(CC=C)CCc1ccc(CS(=O)(=O)c2ccc(C(C)C)cc2)cc1 [Example 23, Diallyl-{2-[4-(4-isopropyl-benzenesulfonylmethyl)-phenyl]-ethyl}-amine×HCl]	59	–	8.08

— US8232426B2, “Aminoethylaromatic compounds suitable for treating disorders that respond to modulation of the dopamine D3 receptor” (Abbott GmbH & Co. KG, priority 2004, dated 2012)
